Results on one compound are retold here after US5834461A, “Tricyclic benzazepine vasopressin antagonists” (American Cyanamid Company, priority 1997, dated 1998).

The target of experiment [1] is T1, human V2 vasopressin receptor (Homo sapiens, UniProt P30518).
T1 construct: expressed in transfected cells; host or cells: mouse fibroblast cell line LV-2
Kind of experiment: Binding to Membranes of Mouse Fibroblast Cell Line (LV-2) Transfected with the cDNA Expressing the Human V2 Vasopressin Receptor. Conditions: LV-2 cells. The protocol:
Flasks of 175 ml capacity, containing attached cells grown to confluence, are cleared of culture medium by aspiration. The flasks containing the attached cells are rinsed with 2×5 ml of phosphate buffered saline (PBS) and the liquid aspirated off each time. Finally, 5 ml of an enzyme free dissociation Hank's based solution (Specialty Media, Inc., Lafayette, N.J.) is added and the flasks are left undisturbed for 2 min. The content of all flasks is poured into a centrifuge tube and the cells pelleted at 300×g for 15 min. The Hank's based solution is aspirated off and the cells homogenized with a polytron at setting #6 for 10 sec in 10.0 mM Tris.HCl buffer, pH 7.4 containing 0.25M sucrose and 1.0 mM EDTA. The homogenate is centrifuged at 1500×g for 10 min to remove ghost membranes. The supernatant fluid is centrifuged at 100,000×g for 60 min to pellet the receptor protein. Upon completion, the pellet is resuspended in a small volume of 50.0 mM Tris.HCl buffer, pH 7.4. The protein content is determined by the Lowry method and the receptor membranes are suspended in 50.0 mM Tris.HCl buffer containing 0.1 mM phenylmethylsulfonylfluoride (PMSF) and 0.2% bovine serum albumin (BSA) to give 2.5 mg receptor protein per ml of suspension.
For binding experiments, the following is added in μl volume to wells of a 96 well format of a microtiter plate: 100.0 μl of 100.0 mM Tris.HCl buffer containing 0.2% heat inactivated BSA, 10.0 mM MgCl2 and a mixture of protease inhibitors: leupeptin, 1.0 mg %; aprotinin, 1.0 mg %; 1,10-phenanthroline, 2.0 mg %; trypsin inhibitor, 10.0 mg % and 0.1 mM PMSF., 20.0 μl of [^3 H] Arginine^8, vasopressin (S.A. 75.0 Ci/mmole) at 0.8 nM and the reaction initiated by the addition of 80.0 μl of tissue membranes ([…]).
The plates are left undisturbed on the bench top for 120 min to reach equilibrium. Non specific binding is assessed in the presence of 1.0 μM of unlabeled ligand, added in 20 μl volume. For test compounds, these are solubilized in 50% dimethylsulfoxide (DMSO) and added in 20.0 μl volume to a final incubation volume of 200 μl. Upon completion of binding, the content of each well is filtered off, using a Brandel® cell Harvester (Gaithersburg, Md.). The radioactivity trapped on the filter disk by the ligand-receptor complex is assessed by liquid scintillation counting in a Packard LS Counter, with an efficiency of 65% for tritium.

Experiment [2] has as its target T2, oxytocin receptors (rat uterus membranes) (Rattus norvegicus, UniProt P70536).
T2 construct: The resulting pellet containing the oxytocin receptors is resuspended; from tissue; host or cells: uterus membranes of DES-treated female Sprague-Dawley rats
T2 sequence (P70536 1-388): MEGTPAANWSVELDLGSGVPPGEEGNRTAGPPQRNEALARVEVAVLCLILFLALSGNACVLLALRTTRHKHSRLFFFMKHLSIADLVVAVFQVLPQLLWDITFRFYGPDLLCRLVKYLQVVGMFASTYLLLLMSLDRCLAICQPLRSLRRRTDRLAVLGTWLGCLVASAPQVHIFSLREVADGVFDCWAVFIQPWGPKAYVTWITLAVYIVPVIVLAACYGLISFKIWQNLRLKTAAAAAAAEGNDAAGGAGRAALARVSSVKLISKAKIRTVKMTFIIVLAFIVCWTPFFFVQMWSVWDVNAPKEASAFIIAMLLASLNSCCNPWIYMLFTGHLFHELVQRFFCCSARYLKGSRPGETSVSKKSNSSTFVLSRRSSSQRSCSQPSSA
Briefly: Oxytocin Receptor Binding. Further details: species or system female Sprague-Dawley rats. In a few lines:
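Uterine membranes from DES-primed female Sprague-Dawley rats (0.3 mg/kg i.m., 18 h) were incubated with 1.0 nM [3H]oxytocin in 50 mM Tris.HCl pH 7.4, 5 mM MgCl2 plus protease inhibitors, 60 min at 22 °C. Bound ligand was separated by filtration; nonspecific binding was defined with 1.0 uM oxytocin, and IC50 was taken from displacement curves.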

T1 sequence (P30518 whole entry): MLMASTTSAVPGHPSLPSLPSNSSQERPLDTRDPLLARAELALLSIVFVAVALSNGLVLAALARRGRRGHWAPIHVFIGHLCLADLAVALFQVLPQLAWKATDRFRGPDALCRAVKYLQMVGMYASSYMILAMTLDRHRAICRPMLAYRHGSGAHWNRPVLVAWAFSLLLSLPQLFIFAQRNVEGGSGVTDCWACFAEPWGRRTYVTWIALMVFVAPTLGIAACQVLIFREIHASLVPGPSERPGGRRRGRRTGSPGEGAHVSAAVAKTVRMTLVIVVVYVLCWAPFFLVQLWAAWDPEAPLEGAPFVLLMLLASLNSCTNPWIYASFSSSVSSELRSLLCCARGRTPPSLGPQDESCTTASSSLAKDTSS

Take `Cc1c(F)cccc1C(=O)Nc1ccc(C(=O)N2Cc3ccccc3Cc3ccccc32)cc1Cl` [Example 262, N-[4-[(6,11-Dihydro-5H-dibenz[b,e]azepin-5-yl)-carbonyl]-2-chlorophenyl]-2-methyl-3-fluorobenzamide]: the IC50 – broadly, the concentration needed to halve the response being measured – in experiment [1] turned out to be 0.25 µM; in experiment [2] (first part of Table V), 6.2 µM. In experiment [2] (dose 10 μM), the inhibition (usually the percentage by which the read-out fell short of the control) at 10 µM was found to be 55%.
